Counter-ions that a name gives are not always drawn. Like-named read-outs stand apart in the source and are kept apart here. Numbered stars: 1 amine (or outer) side, 2 acyl side, 3 side chain; on linkers, the order of the positions; unused ones are H or OH. Square brackets hold non-standard residues; d marks the D form. Peptide text beside a SMILES is read from it. * marks the point of attachment. X2 = O=C(OCc1ccccc1)N1CCN([*:1])[C@H](C(=O)[*:2])C1; dPhe(4-NO2) = N[C@H](Cc1ccc([N+](=O)[O-])cc1)C(=O)O; dPiz(1,6-dehydro) = O=C(O)[C@H]1CCC=NN1; d1Nal = N[C@H](Cc1cccc2ccccc12)C(=O)O; d2Nal = N[C@H](Cc1ccc2ccccc2c1)C(=O)O; dNMeF = CN[C@H](Cc1ccccc1)C(=O)O; dOrn = NCCC[C@@H](N)C(=O)O; Pip = O=C(O)[C@@H]1CCCCN1; dPip = O=C(O)[C@H]1CCCCN1; Nle = CCCC[C@H](N)C(=O)O; Orn = NCCC[C@H](N)C(=O)O; dNMeA = CN[C@H](C)C(=O)O; Cbz = O=C(OCc1ccccc1)*; Boc = CC(C)(C)OC(=O)*
Key:
AVP-V2 sites = target: T1, AVP-V2 sites (Rattus norvegicus, UniProt Q00788); experiment: [^3 H]AVP binding to crude membrane preparation of male rat kidney medulla (AVP-V2 sites)
T1 construct: male rat liver (AVP-V1 sites) or kidney medulla (AVP-V2 sites); from tissue; host or cells: male rat kidney medulla, crude membranes
Description: (§1) Nonspecific binding (5-10% of the total binding) was determined using 10 μM unlabeled AVP, and the binding reaction was terminated by filtration as described above for the [^3 H]OT binding assay.

uterine OT receptors = target: T2, uterine OT receptors (Rattus norvegicus, UniProt P70536); experiment: [^3 H]OT binding to uterine OT receptors, crude membrane preparation of uteri from DES-treated rats; conditions: for IC50: rat uterus membranes, 1 nM [^3 H]OT, read-out: Receptor Binding Results IC50 (nM) [^3 H]OT; for inhibition at 0.1 µM: @ 100 (nM); for inhibition at 1 µM: @ 1,000 (nM)
T2 construct: from tissue; host or cells: uterus of DES-treated rats, crude membranes
T2 sequence (P70536 1-388): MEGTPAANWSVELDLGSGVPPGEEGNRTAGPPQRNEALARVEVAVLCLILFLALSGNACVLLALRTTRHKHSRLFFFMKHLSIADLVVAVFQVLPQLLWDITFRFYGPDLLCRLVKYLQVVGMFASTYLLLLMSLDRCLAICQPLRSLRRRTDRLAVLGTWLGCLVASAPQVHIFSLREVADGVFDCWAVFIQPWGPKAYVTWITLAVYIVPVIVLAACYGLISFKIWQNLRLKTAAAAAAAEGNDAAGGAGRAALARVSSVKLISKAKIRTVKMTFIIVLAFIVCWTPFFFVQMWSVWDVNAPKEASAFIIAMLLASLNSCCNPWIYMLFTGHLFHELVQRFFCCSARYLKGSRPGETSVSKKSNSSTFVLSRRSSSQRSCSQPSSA
Description: Competition studies were conducted at equilibrium (60 minutes; 22° C.) using 1 nM [^3 H]OT in the following assay buffer: 50 mM Tris-HCl, 5 mM MgCl2, and 0.1% BSA, pH 7.4.

AVP-V1 sites = target: T3, AVP-V1 sites (Rattus norvegicus, UniProt P30560); experiment: [^3 H]AVP binding to crude membrane preparation of male rat liver (AVP-V1 sites)
T3 construct: crude membrane preparation of male rat liver (AVP-V1 sites); from tissue; host or cells: male rat liver, crude membranes
Description: as §1

[1] = rat kidney medulla membranes, 2 nM [^3 H]AVP, read-out: Receptor Binding Results IC50 (nM) [^3 H]-AVP-V2
[2] = Receptor Binding Results IC50 (nM) [^3 H]-AVP-V1
[3] = read-out: Receptor Binding Results IC50 (nM) [^3 H]-AVP-V2
[4] = 1 h, read-out: [^3 H]OT: percent inhibition of radioligand at the given concentration
[5] = read-out: Receptor Binding Results IC50 (nM) [^3 H]-AVP-V1
[6] = Receptor Binding Results IC50 (nM) [^3 H]-AVP-V2

T1 sequence (Q00788 whole entry): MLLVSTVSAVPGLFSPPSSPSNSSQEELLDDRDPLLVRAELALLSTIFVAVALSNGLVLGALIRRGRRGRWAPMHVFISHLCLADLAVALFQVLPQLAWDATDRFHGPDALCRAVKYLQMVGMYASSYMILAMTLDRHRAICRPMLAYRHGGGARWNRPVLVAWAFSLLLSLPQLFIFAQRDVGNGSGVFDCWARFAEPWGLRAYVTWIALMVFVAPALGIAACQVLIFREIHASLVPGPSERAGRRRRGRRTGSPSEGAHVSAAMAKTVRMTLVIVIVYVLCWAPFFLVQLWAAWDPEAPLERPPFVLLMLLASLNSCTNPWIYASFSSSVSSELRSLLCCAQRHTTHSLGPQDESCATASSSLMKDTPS
T3 sequence (P30560 whole entry): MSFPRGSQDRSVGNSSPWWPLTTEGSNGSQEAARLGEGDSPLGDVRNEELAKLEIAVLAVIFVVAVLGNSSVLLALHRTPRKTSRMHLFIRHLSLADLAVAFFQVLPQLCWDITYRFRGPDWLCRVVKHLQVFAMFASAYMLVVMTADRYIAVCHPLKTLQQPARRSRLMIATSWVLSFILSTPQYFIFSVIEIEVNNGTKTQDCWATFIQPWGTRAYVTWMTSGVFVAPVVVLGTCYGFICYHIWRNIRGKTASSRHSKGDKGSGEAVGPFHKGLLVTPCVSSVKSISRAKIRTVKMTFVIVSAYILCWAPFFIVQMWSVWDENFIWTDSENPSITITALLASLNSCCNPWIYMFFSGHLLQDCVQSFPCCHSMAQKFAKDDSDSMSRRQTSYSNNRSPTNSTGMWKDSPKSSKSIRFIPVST

SMILES | IC50 (AVP-V2 sites; [1]) | IC50 (uterine OT receptors) | IC50 (AVP-V1 sites; [2]) | other results
CC[C@H](C)[C@@H]1NC(=O)[C@@H](Cc2ccccc2)NC(=O)[C@@H]2CCCN2C(=O)[C@@H](Cc2ccc([N+](=O)[O-])cc2)NC(=O)[C@@H]2CCCCN2C(=O)[C@H]2CCCCN2C1=O [Example 47, Cyclo[D-phenylalanyl-L-isoleucyl-D-pipecolyl-L-pipecolyl-D(p-nitro)phenylalanyl-L-prolyl]] (cyclo(I[dPip][Pip][dPhe(4-NO2)]P[dF])) | 10000 nM | 620 nM | > 1000 nM | –
CC[C@H](C)[C@@H]1NC(=O)[C@@H](Cc2c[nH]c3ccccc23)NC(=O)[C@@H]2CCCN2C(=O)[C@@H](Cc2ccccc2)N(C)C(=O)[C@H](CCCNC(=O)OCc2ccccc2)NC(=O)[C@H]2CCCCN2C1=O [Example 34, Cyclo[D-trytophanyl-L-isoleucyl-D-pipecolyl-L-(carbobenzyloxy)ornithyl-D-(N^α methyl)phenylalanyl-L-prolyl]] (cyclo(I[dPip][Orn](Cbz)[dNMeF]P[dW])) | 10000 nM | 100 nM | > 1000 nM | –
CC[C@H](C)[C@@H]1NC(=O)[C@@H](Cc2ccccc2)NC(=O)[C@@H]2CCCN2C(=O)[C@@H](Cc2ccccc2)N(C)C(=O)[C@@H]2CCCCN2C(=O)[C@@H](C)N(C)C1=O [Example 8, Cyclo[D-Phenylalanyl-L-isoleucyl-D-(N^α methyl)alanyl-L-pipecolyl-D-(N^α methyl)phenylanyl-L-prolyl]] (cyclo(I[dNMeA][Pip][dNMeF]P[dF])) | > 10000 nM | 850 nM | > 10000 nM | –
CC[C@H](C)[C@@H]1NC(=O)[C@@H](Cc2cccc3ccccc23)NC(=O)[C@@H]2CCCN2C(=O)[C@@H](Cc2ccccc2)N(C)C(=O)[C@H](CCCCNC(=O)OC(C)(C)C)NC(=O)[C@H]2CCCCN2C1=O [Example 139, C-[D-1-Napthylalanyl-L-isoleucyl-D-pipecolyl-L-(N-t-butyloxycarbonyl)lysyl-D-(N-methyl)phenylalanyl-L-prolyl]] (cyclo(I[dPip]K(Boc)[dNMeF]P[d1Nal])) | – | – | – | IC50 (AVP-V2 sites; [3]): 8000 nM; inhibition at 0.1 µM (uterine OT receptors; [4]): 24%; IC50 (AVP-V1 sites; [5]): 8000 nM
CC[C@H](C)[C@@H]1NC(=O)C(Cc2c[nH]c3ccc(F)cc23)NC(=O)[C@@H]2CCCN2C(=O)[C@@H](Cc2c[nH]cn2)NC(=O)[C@@H]2CCCCN2C(=O)[C@H]2CCCCN2C1=O (single isomer, unassigned) [157 lower Rf] | – | – | – | IC50 (AVP-V2 sites; [3]): 26000 nM; inhibition at 1 µM (uterine OT receptors; [4]): 6%; IC50 (AVP-V1 sites; [5]): 13000 nM
CCCC[C@@H]1NC(=O)[C@@H](Cc2c[nH]c3ccccc23)NC(=O)[C@@H]2CCCN2C(=O)[C@@H](Cc2c[nH]cn2)NC(=O)[C@@H]2CCCCN2C(=O)[C@H]2CCCCN2C1=O [Example 20, Cyclo[D-tryptophanyl-L-Norleucyl-D-pipecolyl-L-pipecolyl-D-histidyl-L-prolyl]] (cyclo([Nle][dPip][Pip][dH]P[dW])) | – | 72 nM | > 1000 nM | IC50 (AVP-V2 sites; [6]): > 1000 nM
CC[C@H](C)[C@@H]1NC(=O)[C@@H](Cc2ccccc2)NC(=O)[C@@H]2CCCN2C(=O)[C@@H](Cc2c[nH]cn2)NC(=O)[C@H](CCCCNC(=O)OCc2ccccc2)NC(=O)[C@H]2CCCCN2C1=O [Example 37, Cyclo[D-Phenylalanyl-L-isoleucyl-D-pipecolyl-L-(carbobenzyloxy)lysyl-D-histidyl-L-prolyl]] (cyclo(I[dPip]K(Cbz)[dH]P[dF])) | > 10000 nM | > 100 nM | 10000 nM | –
CC[C@H](C)[C@@H]1NC(=O)[C@@H](Cc2ccc3ccccc3c2)NC(=O)[C@@H]2CCCN2C(=O)[C@@H](Cc2ccccc2)N(C)C(=O)[C@@H]2CN(C(=O)OCc3ccccc3)CCN2C(=O)[C@H]2CCCCN2C1=O [Example 169, c-[D-2-Naphthylalanyl-L-isoleucinyl-D-pipecolyl-L-piperazin-2-yl(4-Cbz)-D-(Nα-methyl)-phenylalanyl-L-prolyl]] (cyclo(I[dPip][X2][dNMeF]P[d2Nal])) | 10000 nM | – | > 10000 nM | inhibition at 0.01 µM (uterine OT receptors; 1 h, @ 10 (nM), read-out: [^3 H]OT: percent inhibition of radioligand at the given concentration): 74%
CC[C@H](C)[C@@H]1NC(=O)[C@@H](Cc2ccc(OC)cc2)NC(=O)[C@@H]2CCCN2C(=O)[C@@H](Cc2ccccc2)N(C)C(=O)[C@H](CCCCN)NC(=O)[C@H]2CCCCN2C1=O [Example 150, c-[D-(O-Methyl)Tyrosyl-L-isoleucyl-D-pipecolyl-L-lysyl-D-(N-methyl)phenylalanyl-L-prolyl]] (cyclo(I[dPip]K[dNMeF]P[dY](Me))) | – | 44 nM | 10000 nM | inhibition at 1 µM (AVP-V2 sites; 0.5 h, @ 1,000 (nM), read-out: [^3 H]-AVP-V2: percent inhibition of radioligand at the given concentration): 62%
CC[C@H](C)[C@@H]1NC(=O)[C@@H](Cc2c[nH]c3ccccc23)NC(=O)[C@@H]2CCCN2C(=O)[C@@H](Cc2ccccc2)N(C)C(=O)[C@H](CCCNC(=O)OC(C)(C)C)NC(=O)[C@H]2CCC=NN2C1=O [Example 126, c-[D-Tryptophanyl-L-isoleucyl-D-Δ-piperazyl (N^δ -Boc)-L-ornithyl-N-methyl-D-phenylalanyl-L-prolyl]] (cyclo(I[dPiz(1,6-dehydro)][Orn](Boc)[dNMeF]P[dW])) | – | 15 nM | > 1000 nM | IC50 (AVP-V2 sites; [6]): 1000 nM
CC[C@H](C)[C@@H]1NC(=O)[C@@H](Cc2ccccc2)NC(=O)[C@@H]2CCCN2C(=O)[C@@H](CCCNC(=O)OCc2ccccc2)NC(=O)[C@@H]2CCCCN2C(=O)[C@H]2CCCCN2C1=O [Example 27, Cyclo[D-phenylalanyl-L-isoleucyl-D-pipecolyl-L-pipecolyl-D-(carbobenzyloxy)-ornithyl-L-prolyl]] (cyclo(I[dPip][Pip][dOrn](Cbz)P[dF])) | 10000 nM | – | 10000 nM | inhibition at 1 µM (uterine OT receptors; [4]): 79%
CC[C@H](C)[C@@H]1NC(=O)[C@@H](Cc2ccccc2)NC(=O)[C@@H]2CCCN2C(=O)C(Cc2cccnc2)NC(=O)[C@@H]2CCCCN2C(=O)[C@H]2CCCCN2C1=O (single isomer, unassigned) [Example 10 (isomer 2), Cyclo[D-Phe-L-Ile-D-Pip-L-Pip-D,L-3-PyrAla-L-Pro]] | 10000 nM | 1000 nM | > 10000 nM | –
CC[C@H](C)[C@@H]1NC(=O)[C@@H](Cc2ccccc2)NC(=O)[C@@H]2CCCN2C(=O)[C@@H](Cc2ccccc2)N(C)C(=O)[C@@H]2CCCCN2C(=O)[C@H]2CCC=NN2C1=O [Example 112, c-[D-Phenylalanyl-L-isoleucyl-D-Δ-piperazyl-L-pipecolyl-N-methyl-D-phenylalanyl-L-prolyl]] (cyclo(I[dPiz(1,6-dehydro)][Pip][dNMeF]P[dF])) | – | 14.7 nM | – | IC50 (AVP-V2 sites; [3]): 1170 nM; IC50 (AVP-V1 sites; [5]): 3450 nM
CC[C@H](C)[C@@H]1NC(=O)[C@@H](Cc2ccccc2)NC(=O)[C@@H]2CCCN2C(=O)[C@@H](Cc2ccccc2)N(C)C(=O)[C@H](CCCNC(=N)N)NC(=O)[C@H]2CCC=NN2C1=O [Example 131, c-[D-phenylalanyl-L-isoleucyl-D-Δ-piperazyl-L-arginyl-D-(Nα-methyl)-phenylalanyl-L-prolyl]trifluoroacetate salt] (cyclo(I[dPiz(1,6-dehydro)]R[dNMeF]P[dF])) | – | 7.2 nM | – | IC50 (AVP-V2 sites; [3]): 500 nM; IC50 (AVP-V1 sites; [5]): 400 nM
CC[C@H](C)[C@@H]1NC(=O)[C@@H](Cc2c[nH]c3ccccc23)NC(=O)[C@@H]2CCCN2C(=O)[C@@H](Cc2ccccc2)NC(=O)[C@@H]2CN(C(=O)OCc3ccccc3)CCN2C(=O)[C@H]2CCCCN2C1=O [Example 89, c-[D-Tryptophanyl-L-isoleucinyl-D-pipecolyl-L-piperazin-2-yl(4-Cbz)-D-phenylalanyl-L-prolyl]] (cyclo(I[dPip][X2][dF]P[dW])) | – | – | > 10000 nM | IC50 (AVP-V2 sites; [6]): > 1000 nM; inhibition at 0.1 µM (uterine OT receptors; [4]): 35%
